Test results: ChEMBL document CHEMBL3045872, “The Design and Synthesis of a Novel, Orally Active, Selective ETA Antagonist” (Med Chem Res, 2004); call rule not given here
Blank lines part the entries; values can stand above or below the compound they belong to.

Tests used:
[1] = biological target: T1, Endothelin receptor type B (Homo sapiens, UniProt P24530); experiment: Displacement of [I125]ET1 from Homo sapiens (human) ETB receptor expressed in CHO cells; assay type: cell-based
T1 sequence (P24530 whole entry): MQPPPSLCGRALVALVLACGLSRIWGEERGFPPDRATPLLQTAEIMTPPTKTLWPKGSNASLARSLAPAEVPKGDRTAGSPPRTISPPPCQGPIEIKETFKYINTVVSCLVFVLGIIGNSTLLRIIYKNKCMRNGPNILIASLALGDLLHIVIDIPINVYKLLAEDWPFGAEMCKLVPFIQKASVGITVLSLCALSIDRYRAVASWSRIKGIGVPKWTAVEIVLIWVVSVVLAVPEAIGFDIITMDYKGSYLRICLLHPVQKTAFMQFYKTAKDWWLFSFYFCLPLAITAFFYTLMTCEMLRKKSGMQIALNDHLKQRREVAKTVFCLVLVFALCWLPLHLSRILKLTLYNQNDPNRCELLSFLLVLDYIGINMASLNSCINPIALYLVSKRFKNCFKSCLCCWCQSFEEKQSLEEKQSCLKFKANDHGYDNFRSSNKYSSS

Endothelin-1 receptor = biological target: T2, Endothelin-1 receptor (Homo sapiens, UniProt P25101); experiment: Displacement of [I125]ET1 from Homo sapiens (human) ETA receptor expressed in CHO cells; assay type: cell-based
T2 sequence (P25101 whole entry): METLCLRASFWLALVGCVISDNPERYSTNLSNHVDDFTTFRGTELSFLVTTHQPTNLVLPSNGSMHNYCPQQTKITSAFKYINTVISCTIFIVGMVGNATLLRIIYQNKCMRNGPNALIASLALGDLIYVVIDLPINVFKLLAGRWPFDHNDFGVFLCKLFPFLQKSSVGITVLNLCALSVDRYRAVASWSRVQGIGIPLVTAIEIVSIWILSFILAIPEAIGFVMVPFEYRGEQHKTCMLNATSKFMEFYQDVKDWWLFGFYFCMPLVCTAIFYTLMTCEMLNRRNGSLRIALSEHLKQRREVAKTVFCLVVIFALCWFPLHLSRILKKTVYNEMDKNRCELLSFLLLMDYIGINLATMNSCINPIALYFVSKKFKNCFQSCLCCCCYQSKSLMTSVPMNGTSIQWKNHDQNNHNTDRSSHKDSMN

[2] = Inhibition of endothelin converting enzyme (unknown origin); set-up: species or system Homo sapiens
[3] = Drug absorption in Rattus norvegicus Sprague-Dawley (rat) at 2 mg/kg, iv; assay type: ADME, organism-based; set-up: dose 2 mg/kg, route intravenous; conditions: in vivo, read-out: Drug absorption
[4] = Fraction unbound in Rattus norvegicus Sprague-Dawley (rat) at 2 mg/kg, iv; assay type: ADME, organism-based; set-up: dose 2 mg/kg, route intravenous; conditions: in vivo
[5] = Volume of distribution in Rattus norvegicus Sprague-Dawley (rat) at 2 mg/kg, iv; assay type: ADME, organism-based; set-up: dose 2 mg/kg, route intravenous; conditions: in vivo
[6] = Permeability of the compound across Homo sapiens (human) Caco2 cells; assay type: ADME, cell-based; conditions: Caco-2, read-out: permeability
Rattus norvegicus [7] = experiment: Unbound clearance in Rattus norvegicus Sprague-Dawley (rat) at 2 mg/kg, iv; assay type: ADME, organism-based; set-up: dose 2 mg/kg, route intravenous; conditions: in vivo
[8] = Tmax in Rattus norvegicus (rat) at 2 mg/kg, po; assay type: ADME, organism-based; set-up: dose 2 mg/kg, route oral; conditions: in vivo
Rattus norvegicus [9] = experiment: Prodrug conversion in Rattus norvegicus (rat) assessed as (S)-3-(1-(benzo[d][1,3]dioxol-5-yl)-2-(2-methoxy-4-methylphenylsulfonamido)-2-oxoethyl)-1-methyl-1H-indole-6-carboxylic acid level at 2 mg/kg, po; assay type: ADME, organism-based; set-up: dose 2 mg/kg, route oral; conditions: in vivo
Rattus norvegicus [10] = experiment: Prodrug conversion in Rattus norvegicus (rat) assessed as (S)-3-(1-(benzo[d][1,3]dioxol-5-yl)-2-(2-methoxy-4-methylphenylsulfonamido)-2-oxoethyl)-1-methyl-1H-indole-6-carboxylic acid level at 2 mg/kg, iv; assay type: ADME, organism-based; set-up: dose 2 mg/kg, route intravenous; conditions: in vivo
[11] = Elimination half life in Rattus norvegicus (rat) at 2 mg/kg, iv; assay type: ADME, organism-based; set-up: dose 2 mg/kg, route intravenous; conditions: in vivo, read-out: beta t1/2 (converted)
[12] = Volume of distribution in Rattus norvegicus (rat) at 2 mg/kg, iv; assay type: ADME, organism-based; set-up: dose 2 mg/kg, route intravenous; conditions: in vivo
[13] = Plasma clearance in Rattus norvegicus (rat) at 2 mg/kg, iv; assay type: ADME, organism-based; set-up: dose 2 mg/kg, route intravenous
Canis familiaris [14] = experiment: Cardiotoxicity in Canis lupus familiaris (dog) assessed as change in left ventricular contractility at 1.5 to 15 mg/kg, po; assay type: toxicity, organism-based, Heart left ventricle; set-up: dose 1.5-15 mg/kg, route oral; conditions: in vivo
Canis familiaris [15] = experiment: Cardiotoxicity in Canis lupus familiaris (dog) assessed as change in ECG at 1.5 to 15 mg/kg, po; assay type: toxicity, organism-based; set-up: dose 1.5-15 mg/kg, route oral; conditions: in vivo
Canis familiaris [16] = experiment: Cardiotoxicity in Canis lupus familiaris (dog) assessed as change in heart rate at 1.5 to 15 mg/kg, po; assay type: toxicity, organism-based; set-up: dose 1.5-15 mg/kg, route oral; conditions: in vivo
Rattus norvegicus [17] = experiment: Toxicity in Rattus norvegicus (rat) at 30 mg/kg, po QD for 5 days; assay type: organism-based; set-up: dose 30 mg/kg, route oral; conditions: in vivo, 120 h
Liver cytosol [18] = experiment: Prodrug conversion in Sus scrofa (pig) liver cytosol assessed as (S)-3-(1-(benzo[d][1,3]dioxol-5-yl)-2-(2-methoxy-4-methylphenylsulfonamido)-2-oxoethyl)-1-methyl-1H-indole-6-carboxylic acid formation; assay type: ADME, tissue-based
Liver cytosol [19] = experiment: Prodrug conversion in Homo sapiens (human) liver cytosol assessed as (S)-3-(1-(benzo[d][1,3]dioxol-5-yl)-2-(2-methoxy-4-methylphenylsulfonamido)-2-oxoethyl)-1-methyl-1H-indole-6-carboxylic acid formation; assay type: ADME, tissue-based
Liver cytosol [20] = experiment: Prodrug conversion in male Rattus norvegicus (rat) liver cytosol assessed as (S)-3-(1-(benzo[d][1,3]dioxol-5-yl)-2-(2-methoxy-4-methylphenylsulfonamido)-2-oxoethyl)-1-methyl-1H-indole-6-carboxylic acid formation; assay type: ADME, tissue-based
[21] = Half life in Rattus norvegicus (rat) liver microsome at 1 uM; assay type: ADME; conditions: liver microsomes
[22] = Half life in Canis lupus familiaris (dog) liver microsome at 1 uM; assay type: ADME; conditions: liver microsomes
[23] = Half life in Homo sapiens (human) liver microsome at 1 uM; assay type: ADME; conditions: liver microsomes
Rattus norvegicus [24] = experiment: Apparent elimination half life in Rattus norvegicus (rat) assessed as (S)-3-(1-(benzo[d][1,3]dioxol-5-yl)-2-(2-methoxy-4-methylphenylsulfonamido)-2-oxoethyl)-1-methyl-1H-indole-6-carboxylic acid level at 2 mg/kg, po; assay type: ADME, organism-based; set-up: dose 2 mg/kg, route oral; conditions: in vivo
Rattus norvegicus [25] = experiment: Drug absorption in Rattus norvegicus (rat) assessed as (S)-3-(1-(benzo[d][1,3]dioxol-5-yl)-2-(2-methoxy-4-methylphenylsulfonamido)-2-oxoethyl)-1-methyl-1H-indole-6-carboxylic acid level at 2 mg/kg; assay type: ADME, organism-based; set-up: dose 2 mg/kg; conditions: in vivo
Rattus norvegicus [26] = experiment: Tmax in Rattus norvegicus (rat) assessed as (S)-3-(1-(benzo[d][1,3]dioxol-5-yl)-2-(2-methoxy-4-methylphenylsulfonamido)-2-oxoethyl)-1-methyl-1H-indole-6-carboxylic acid level at 2 mg/kg, po; assay type: ADME, organism-based; set-up: dose 2 mg/kg, route oral; conditions: in vivo
Rattus norvegicus [27] = experiment: Cmax in Rattus norvegicus (rat) assessed as (S)-3-(1-(benzo[d][1,3]dioxol-5-yl)-2-(2-methoxy-4-methylphenylsulfonamido)-2-oxoethyl)-1-methyl-1H-indole-6-carboxylic acid level at 2 mg/kg, po; assay type: ADME, organism-based; set-up: dose 2 mg/kg, route oral; conditions: in vivo
[28] = Cmax in Rattus norvegicus (rat) at 2 mg/kg, po; assay type: ADME, organism-based; set-up: dose 2 mg/kg, route oral; conditions: in vivo

IC50 [1]: 0.347 µM
Ki [1]: 1.46 µM
IC50 (Endothelin-1 receptor): 0.0042 µM
IC50 [2]: 325 µM
SMILES: COc1cc(C)ccc1S(=O)(=O)NC(=O)[C@@H](c1ccc2c(c1)OCO2)c1cn(C)c2cc(C(=O)O)ccc12

Fa [3]: 55%
Fu [4]: 0.01%
Vd [5]: 1.2 L/kg
Papp [6]: 12 nm/s
CL free (Rattus norvegicus [7]): 432 L/h/kg
IC50 [1]: 0.245 µM
IC50 (Endothelin-1 receptor): 0.0087 µM
SMILES: COc1cc(C)ccc1S(=O)(=O)NC(=O)C(c1ccc2c(c1)OCO2)c1cn(C)c2cc(CO)ccc12 (configuration not stated)

Tmax [8]: 0.25 h
Drug metabolism (Rattus norvegicus [9]): Active
Drug metabolism (Rattus norvegicus [10]): Active
half-life [11]: 1.1 h
Vd [12]: 0.16 L/kg
IC50 [1]: 0.683 µM
Ki [1]: 1.5 µM
clearance [13]: 0.102 L/h/kg
IC50 (Endothelin-1 receptor): 0.0022 µM
Ki (Endothelin-1 receptor): 0.0022 µM
IC50 [2]: 765 µM
Drug metabolism (Liver cytosol [18]): Active
Drug metabolism (Liver cytosol [19]): Active
Drug metabolism (Liver cytosol [20]): Active
half-life at 1 µM [21]: > 2 h
half-life at 1 µM [22]: > 2 h
half-life at 1 µM [23]: > 2 h
betat1/2(app) (Rattus norvegicus [24]): 9 h
Drug absorption (Rattus norvegicus [25]): 36%
Tmax (Rattus norvegicus [26]): 4 h
Cmax (Rattus norvegicus [27]): 0.083 µg/mL
Cmax [28]: 0.048 µg/mL
SMILES: COc1cc(C)ccc1S(=O)(=O)NC(=O)[C@@H](c1ccc2c(c1)OCO2)c1cn(C)c2cc(CO)ccc12
Activity (Canis familiaris [14]): Non-toxic
Activity (Canis familiaris [15]): Non-toxic
Activity (Canis familiaris [16]): Non-toxic
Activity (Rattus norvegicus [17]): Non-toxic

Fa [3]: < 5%
Fu [4]: 0.007%
Vd [5]: 0.6 L/kg
Papp [6]: 16 nm/s
CL free (Rattus norvegicus [7]): 79.74 L/h/kg
IC50 [1]: 0.275 µM
SMILES: COc1cc(C)ccc1S(=O)(=O)NC(=O)C(c1ccc2c(c1)OCO2)c1cn(C)c2cc(C(N)=O)ccc12 (racemic)

IC50 (Endothelin-1 receptor): 0.56 µM
SMILES: CCn1cc(C(C(=O)NS(=O)(=O)c2ccc(C(C)C)cc2)c2ccc3c(c2)OCO3)c2ccccc21 (racemic)

Fa [3]: < 5%
Fu [4]: 0.048%
Vd [5]: 0.3 L/kg
Papp [6]: < 5 nm/s
CL free (Rattus norvegicus [7]): 8.28 L/h/kg
IC50 [1]: 0.574 µM
IC50 (Endothelin-1 receptor): 0.0017 µM
SMILES: Cn1cc(C(C(=O)NS(=O)(=O)c2ccc(CC(=O)O)cc2)c2ccc3c(c2)OCO3)c2ccc(C(N)=O)cc21 (racemic)

Fa [3]: < 5%
Fu [4]: 0.01%
Vd [5]: 0.6 L/kg
Papp [6]: < 5 nm/s
CL free (Rattus norvegicus [7]): 36.5 L/h/kg
IC50 [1]: 0.65 µM
IC50 (Endothelin-1 receptor): 0.0053 µM
SMILES: COc1cc(C)ccc1S(=O)(=O)NC(=O)C(c1ccc2c(c1)OCO2)c1cn(C)c2cc(C(=O)O)ccc12 (racemic)

IC50 (Endothelin-1 receptor): 0.034 µM
SMILES: Cc1ccc(S(=O)(=O)NC(=O)C(c2ccc3c(c2)OCO3)c2cn(C)c3cc(CO)ccc23)cc1 (racemic)

IC50 [1]: 0.217 µM
IC50 (Endothelin-1 receptor): 0.046 µM
SMILES: COc1cc(C)ccc1S(=O)(=O)NC(=O)C(c1ccc2c(c1)OCO2)c1cn(C)c2cc(Cl)ccc12 (racemic)

Fa [3]: 100%
Fu [4]: 0.005%
Vd [5]: 4 L/kg
Papp [6]: 50 nm/s
CL free (Rattus norvegicus [7]): 104.4 L/h/kg
IC50 [1]: 0.219 µM
IC50 (Endothelin-1 receptor): 0.014 µM
SMILES: COc1cc(C)ccc1S(=O)(=O)NC(=O)C(c1ccc2c(c1)OCO2)c1cn(C)c2cc(F)ccc12 (racemic)

Fa [3]: 70%
Fu [4]: 0.002%
Vd [5]: 5 L/kg
Papp [6]: 200 nm/s
CL free (Rattus norvegicus [7]): 1020 L/h/kg
IC50 [1]: 0.906 µM
IC50 (Endothelin-1 receptor): 0.0014 µM
SMILES: COc1cc(C)ccc1S(=O)(=O)NC(=O)C(c1ccc2c(c1)OCO2)c1cn(C)c2cc(C(C)=O)ccc12 (racemic)

Fu [4]: 0.002%
Vd [5]: 2.8 L/kg
Papp [6]: 200 nm/s
CL free (Rattus norvegicus [7]): 1140 L/h/kg
IC50 [1]: 0.421 µM
IC50 (Endothelin-1 receptor): 0.011 µM
SMILES: COc1cc(C)ccc1S(=O)(=O)NC(=O)C(c1ccc2c(c1)OCO2)c1cn(C)c2cc(C#N)ccc12 (racemic)

IC50 [1]: 1.14 µM
IC50 (Endothelin-1 receptor): 0.0088 µM
SMILES: COCc1ccc2c(C(C(=O)NS(=O)(=O)c3ccc(C)cc3OC)c3ccc4c(c3)OCO4)cn(C)c2c1 (racemic)

IC50 [1]: 0.24 µM
IC50 (Endothelin-1 receptor): 0.018 µM
SMILES: CCOC(=O)c1ccc2c(C(C(=O)NS(=O)(=O)c3ccc(C)cc3OC)c3ccc4c(c3)OCO4)cn(C)c2c1 (racemic)

IC50 [1]: 0.069 µM
SMILES: CCn1cc(C(C(=O)NS(=O)(=O)c2ccc(C(C)C)cc2)c2ccc3c(c2)OCO3)c2ccc(C(=O)O)cc21 (racemic)

IC50 [1]: 0.015 µM
SMILES: CC(C)c1ccc(S(=O)(=O)NC(=O)C(c2ccc3c(c2)OCO3)c2cn(C)c3cc(C(N)=O)ccc23)cc1 (racemic)
